{
  "source": "paper PMC7961996",
  "about": "“Small Immunomodulatory Molecules as Potential Therapeutics in Experimental Murine Models of Acute Lung Injury (ALI)/Acute Respiratory Distress Syndrome (ARDS)” (International Journal of Molecular Sciences, 2021)",
  "origin": "cited, not measured here",
  "key": {"endotoxemia": {"test_system": "endotoxemia", "design": "method as in PMID 22654663", "settings": "in vivo; cited from earlier work"}, "[1]": {"test_system": "murine macrophages and human peripheral blood monocytes-hPBMC", "design": "method as in PMID 22654663", "settings": "in vitro; cited from earlier work"}},
  "data": [
    {"substance": "chitohexaose", "values": [
      {"measurement": "endotoxemia", "setting": "endotoxemia", "value": "reduces endotoxemia"},
      {"measurement": "LPS-induced inflammatory mediators such as TNF-α and IL-6", "setting": "[1]", "value": "blocks lipopolysaccharide (LPS)-induced inflammatory mediators"}
    ]}
  ]
}
